# Assay results reported in ChEMBL document CHEMBL4715917 (Bioorg Med Chem, 2021).
# How the values were obtained:
# [1] = molecular target: Epidermal growth factor receptor (Homo sapiens, UniProt P00533)
# Description: Inhibition of recombinant wild type EGFR (696 to C terminal end) (unknown origin) using poly (Glu-Tyr) as substrate preincubated for 30 mins followed by substrate addition and measured after 30 mins by ELISA
# [2] = molecular target: Epidermal growth factor receptor (Homo sapiens, UniProt P00533, L858R/T790M)
# A549 = test: Cytotoxicity against human A549 cells harboring wild type EGFR assessed as reduction in cell viability after 72 hrs by MTT assay; type: functional, cell-based; conditions: A549, 72 h
# NCI-H1975 = test: Cytotoxicity against human NCI-H1975 cells harboring T790M/L858R mutant assessed as reduction in cell viability after 72 hrs by MTT assay; type: functional, cell-based; conditions: NCI-H1975, 72 h
# Chain of Epidermal growth factor receptor (Homo sapiens, UniProt P00533) (P00533 whole entry): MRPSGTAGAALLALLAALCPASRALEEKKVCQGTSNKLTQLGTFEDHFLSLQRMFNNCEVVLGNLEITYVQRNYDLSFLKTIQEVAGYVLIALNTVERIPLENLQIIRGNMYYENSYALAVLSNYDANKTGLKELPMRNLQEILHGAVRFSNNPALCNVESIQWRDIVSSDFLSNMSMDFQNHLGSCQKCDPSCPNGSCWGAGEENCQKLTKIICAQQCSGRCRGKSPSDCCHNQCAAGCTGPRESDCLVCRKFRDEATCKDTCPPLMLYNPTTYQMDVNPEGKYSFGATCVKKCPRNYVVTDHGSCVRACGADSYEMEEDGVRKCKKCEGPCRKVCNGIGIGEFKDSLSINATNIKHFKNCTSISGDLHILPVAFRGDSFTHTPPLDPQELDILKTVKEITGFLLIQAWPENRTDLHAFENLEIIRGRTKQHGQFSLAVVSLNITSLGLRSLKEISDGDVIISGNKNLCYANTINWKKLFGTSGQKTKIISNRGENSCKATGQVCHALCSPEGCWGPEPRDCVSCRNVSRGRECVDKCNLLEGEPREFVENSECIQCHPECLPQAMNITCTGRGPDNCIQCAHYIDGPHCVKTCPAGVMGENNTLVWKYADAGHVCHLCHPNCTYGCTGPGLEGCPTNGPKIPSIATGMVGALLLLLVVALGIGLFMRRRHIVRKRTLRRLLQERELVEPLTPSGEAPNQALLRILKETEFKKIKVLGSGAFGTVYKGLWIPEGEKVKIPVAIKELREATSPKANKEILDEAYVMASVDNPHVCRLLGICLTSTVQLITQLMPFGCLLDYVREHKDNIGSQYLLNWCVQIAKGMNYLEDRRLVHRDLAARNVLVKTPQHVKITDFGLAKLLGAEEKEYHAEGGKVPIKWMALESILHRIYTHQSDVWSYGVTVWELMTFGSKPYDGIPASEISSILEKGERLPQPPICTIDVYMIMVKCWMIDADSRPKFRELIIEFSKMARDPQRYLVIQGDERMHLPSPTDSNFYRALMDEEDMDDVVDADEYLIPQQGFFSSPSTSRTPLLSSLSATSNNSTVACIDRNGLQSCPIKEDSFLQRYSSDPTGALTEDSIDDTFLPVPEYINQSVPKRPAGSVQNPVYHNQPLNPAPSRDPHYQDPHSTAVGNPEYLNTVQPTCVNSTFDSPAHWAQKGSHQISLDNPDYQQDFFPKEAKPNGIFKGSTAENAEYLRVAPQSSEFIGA
# Chain of Epidermal growth factor receptor (Homo sapiens, UniProt P00533, L858R/T790M) (P00533 25-1210 T790M/L858R limits assumed): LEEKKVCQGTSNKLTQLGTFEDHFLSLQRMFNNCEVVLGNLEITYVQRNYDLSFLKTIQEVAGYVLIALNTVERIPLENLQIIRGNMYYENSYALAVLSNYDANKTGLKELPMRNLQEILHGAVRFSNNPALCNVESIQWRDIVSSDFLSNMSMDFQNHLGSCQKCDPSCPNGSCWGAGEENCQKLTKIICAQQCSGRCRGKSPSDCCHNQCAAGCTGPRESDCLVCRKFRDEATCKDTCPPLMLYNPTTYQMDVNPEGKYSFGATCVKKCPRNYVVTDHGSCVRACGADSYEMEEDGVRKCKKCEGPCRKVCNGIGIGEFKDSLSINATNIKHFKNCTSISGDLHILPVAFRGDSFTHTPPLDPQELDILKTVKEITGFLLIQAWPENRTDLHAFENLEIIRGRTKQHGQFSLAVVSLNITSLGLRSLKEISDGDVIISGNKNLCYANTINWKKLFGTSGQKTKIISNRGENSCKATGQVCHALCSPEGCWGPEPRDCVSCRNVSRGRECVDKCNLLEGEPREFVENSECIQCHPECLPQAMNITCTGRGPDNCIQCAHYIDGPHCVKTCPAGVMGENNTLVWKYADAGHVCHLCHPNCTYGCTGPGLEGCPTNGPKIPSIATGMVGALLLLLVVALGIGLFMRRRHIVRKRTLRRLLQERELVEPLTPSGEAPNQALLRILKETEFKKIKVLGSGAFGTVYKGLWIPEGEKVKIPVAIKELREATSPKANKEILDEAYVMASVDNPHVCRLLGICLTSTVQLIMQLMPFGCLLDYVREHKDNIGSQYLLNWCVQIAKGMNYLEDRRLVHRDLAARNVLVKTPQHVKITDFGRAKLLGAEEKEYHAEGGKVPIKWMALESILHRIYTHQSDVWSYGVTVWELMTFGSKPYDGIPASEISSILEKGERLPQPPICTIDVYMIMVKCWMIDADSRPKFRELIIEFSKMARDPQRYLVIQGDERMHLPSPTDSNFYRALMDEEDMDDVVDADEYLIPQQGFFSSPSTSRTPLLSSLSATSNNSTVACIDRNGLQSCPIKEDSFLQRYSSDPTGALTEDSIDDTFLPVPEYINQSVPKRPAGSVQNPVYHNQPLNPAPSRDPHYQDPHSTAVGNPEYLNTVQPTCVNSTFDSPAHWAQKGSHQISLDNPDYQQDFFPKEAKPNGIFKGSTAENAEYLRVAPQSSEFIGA
Structure (SMILES),IC50 [1],IC50 [2],IC50 (A549),IC50 (NCI-H1975)
COc1ccc(-c2c3c4cc(OC)c(O)cc4[nH]c(=O)c3n3ccc4cc(O)c(OC)cc4c23)cc1O,,,15.5 nM,1.9 nM
COc1ccc(-c2c3c4cc(OC)c(OC)cc4[nH]c(=O)c3n3ccc4cc(O)c(OC)cc4c23)cc1O,259 nM,65.3 nM,,
COc1ccc(-c2c3c4cc(OC)c(OCCCN(C)C)cc4[nH]c(=O)c3n3ccc4cc(O)c(OC)cc4c23)cc1O,15.5 nM,5.7 nM,1040 nM,350 nM

# Second part, led by results:
IC50 [1],IC50 [2],Structure (SMILES),IC50 (A549),IC50 (NCI-H1975)
23.6 nM,16.6 nM,COc1ccc(-c2c3c4cc(OCCCN(C)C)c(O)cc4[nH]c(=O)c3n3ccc4cc(O)c(OC)cc4c23)cc1O,,
4.6 nM,1.7 nM,COc1ccc(-c2c3c4cc(OCCCN(C)C)c(OCCCN(C)C)cc4[nH]c(=O)c3n3ccc4cc(O)c(OC)cc4c23)cc1O,2040 nM,1360 nM
24.7 nM,10.2 nM,COc1ccc(-c2c3c4cc(O)c(OCCCN(C)C)cc4[nH]c(=O)c3n3ccc4cc(O)c(OC)cc4c23)cc1O,,
